Experimental data as given in paper PMC7922564, “Molecular Insights into an Antibiotic Enhancer Action of New Morpholine-Containing 5-Arylideneimidazolones in the Fight against MDR Bacteria” (International Journal of Molecular Sciences, 2021).
Values joined by “and” are separate entries in the source; they are usually repeats but may differ in a detail not shown here. Equal values may be shown once. Read-outs that look alike come from different tables or passages of the source.

What was measured:
[1] = tested on: K. aerogenes Ea-289 (overexpression of AcrAB-TolC); assay: MIC of compounds, K. aerogenes Ea-289; format: cell-based; conditions: Klebsiella aerogenes
Description: At first, MIC values of compounds were determined (Table S15, Supplementary). Next, their abilities to reduce MICs of the AcrAB-TolC substrates doxycycline (a tetracycline-class antibiotic) and erythromycin were studied (Table S16, Supplementary). […]
(§1) Determination of MIC values, i.e., intrinsic antibacterial activity, of products and antibiotics (oxacillin, ampicillin, vancomycin, ciprofloxacin, and erythromycin) in the presence and absence of compounds tested was conducted by the use of a standard 2-fold microdilution method in cation-adjusted Mueller Hinton broth following the Clinical and Laboratory Standards Institute (CLSI) guidelines. The MIC values were detected using an Infinite M200 pro Tecan microplate reader (Tecan® France, SA-Lyon, France). MIC determinations were conducted in 96-well microtiter plates and repeated 3–4 times.
(§2) MIC values of 5-arylideneimidazolone derivatives were determined following CLSI recommendations as in the methods described for S. aureus (Section 3.3.1).

[2] = Stability in acidic and basic conditions (TLC); format: physicochemical; conditions: for Number of TLC spots: 1 = stable
Description: Compounds 9–12, 15, and 19 were also tested for their stability in acidic and basic conditions. This assay was carried out for 48 h and samples were taken at six-time intervals (10 min, 1 h, 2 h, 3 h, 24 h, 48 h). Stability of the compounds was determined using the TLC method. […] In basic conditions, only compounds 10 and 15 were stable for 24 h. […] Results with details, including time of degradation of products obtained, are presented in the Supplementary (Tables S19 and S20). […]
VI. Stability in different pH conditions
Stability of chosen compounds (9-12, 15, and 19) were determined using the TLC method. Assays were performed in acidic and basic conditions and were carried out for 48 h. Samples were taken at six-time intervals (10 min., 1 h, 2 h, 3 h, 24 h, 48 h). […]
of spots observed on TLC, where 1 indicate that compound is stable (only TLC spot for proper compound was observed). Higher values point out how many products of degradation was observed, which can be calculating by subtracting one from number of spots.
Table S19. Results of chosen compounds (9-12, 15, 19) stability in acidic conditions.
Compound Number of TLC spots in defined time
Table S20. Results of chosen compounds (9-12, 15, 19) stability in basic conditions.

K. aerogenes Ea-289 = assay: MIC reduction assay (antibiotic adjuvant), K. aerogenes Ea-289; format: cell-based, Klebsiella aerogenes;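 further: compound at no more than one quarter of its own MIC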
Description: At first, MIC values of compounds were determined (Table S15, Supplementary). Next, their abilities to reduce MICs of the AcrAB-TolC substrates doxycycline (a tetracycline-class antibiotic) and erythromycin were studied (Table S16, Supplementary).
(§3) A subset of compounds, namely 7, 12–16, 19, 20, was also examined for the potential to increase the effectiveness of the antibiotics chloramphenicol, erythromycin, doxycycline, and the fluoroquinolone antibiotic norfloxacin, which all are substrates for AcrAB-TolC in K. aerogenes. In addition to strain Ea-289, the adjuvant-like effect of the compounds was investigated in strain CM-64, which also overexpresses the AcrAB-TolC efflux pump, although it has no changes in porin content, and in the Ea-289 derivatives, i.e., Ea-294 and Ea-308, which are devoid of AcrAB (Table S17, Supplementary).
(§4) Initially, MICs of a series of imidazolone derivatives were assessed against susceptible (reference) and MDR strains of staphylococci. Next, MIC values of the aforementioned antibiotics were determined in the absence and presence of imidazolone derivatives to assess the chemosensitizing effect of these compounds. […] 5-arylideneimidazolones and 5-arylidenethiazolones, which precipitated after addition to bacterial suspension in MH II medium, were tested at the highest concentrations at which precipitation was not observed. […] Antibacterial activity of compounds and antibiotics ampicillin, vancomycin, ciprofloxacin, and erythromycin was recorded as the lowest concentration of molecules able to inhibit bacterial growth after 18 h incubation at 37 °C. The incubation of bacterial strains exposed to oxacillin paired with compounds tested was conducted at 35 °C and extended to 24 h due to frequent occurrence of heterogeneity among MRSA strains. The results are presented as activity gain (A) parameter which was calculated as ratio of MIC of a certain antibiotic (MICAnt) to its MICAnt+Comp, observed in combination with a tested compound (7, 12–16, 19, or 20; Equation (1)). (1) A=(MICAnt/MICAnt+Comp)
as §2

[3] = Water solubility (UV spectroscopy); format: physicochemical
Text: Six representatives of 5-arylideneimidazolones (9–12, 15, 19) were chosen for the determination of water solubility. UV spectroscopy was used for the estimation of concentrations of compounds according to the method described earlier. Acquired UV absorbance, calculated means, and standard deviations for tested compounds are presented in Supplementary Table S18. Solubility results, presented in Table 6, point out that compounds from the same group (A or B, Table 1 and Table 2) with the two-ring aromatic moiety are more soluble than compounds with the fluorene motive (Group A: 9, 10, 11 vs. 12; Group B: 15 vs. 19). […] The most soluble of tested compounds was compound 15, which could be dissolved in water at a concentration of up to 205.502 mM/L.
Water solubility was obtained using UV spectroscopy method. Absorbance of tested solutions of compounds 9-12, 15, and 19, respectively in suitable dilution, in three repetitions as well as calculated arithmetic means, solubility and standard deviations are presented in Table S18. the solubility results […]
Table S18. Results of absorbance used for estimation of water solubility of tested compounds (9-12, 15, 19).
Abbreviations: A1, A2,and A3, UV absorbance in first, second, and third repetition; Amean, arithmetic mean of absorbance from three repetitions; s, standard deviation for absorbance; S, water solubility; SD – standard deviation for solubility. […]

MRSA 19449 = assay: MIC determination (microdilution), MRSA 19449; format: cell-based, Staphylococcus aureus; conditions: for MIC: Staphylococcus aureus, MRSA, no precipitation
Description: as §1, §4

S. aureus ATCC 25923 = assay: MIC determination (microdilution), S. aureus ATCC 25923; format: cell-based, Staphylococcus aureus; conditions: for MIC: Staphylococcus aureus, ATCC25923, unstarred values of column MIC value/no precipitation, read-out: MIC value
Description: as §1, §4

[4] = tested on: AcrAB-TolC efflux pump in K. aerogenes strain Ea-289; assay: Real-time efflux (RTE) assay, 1,2'-dNA extrusion; format: cell-based, Klebsiella aerogenes; conditions: compound 100 µM; IE=100% total inhibition of efflux
Description: Compounds 7, 12–16, 19, and 20 were also assessed for their EPI property in K. aerogenes strain Ea-289 with the use of a real-time efflux (RTE) assay. Results for compounds 16 and 20 were previously described. The experiment is based on the measurement of the extrusion of a fluorescent dye from bacterial cells overproducing efflux pump transporters in the presence and absence of compounds tested. The dye used in this assay, 1,2’ –dinaphthylamine (1,2’-dNA), is a substrate for the AcrAB-TolC efflux pump, and is strongly fluorescent upon incorporation into a phospholipid bilayer, although it is almost non-fluorescent in an aqueous solution [37, 38].
A likewise strong blocking efficacy (IE = 83 %) was also noticed for compound 12, while the lowest inhibitory effect was found for compound 13 (IE = 23 %).
The inhibitory activity of 5-arylideneimidazolone derivatives towards AcrAB-TolC mediated efflux of 1,2’-dNA was detected in K. aerogenes strain Ea-289 by using a real-time fluorometric method. In a first step, bacterial cells were loaded with the environment-sensitive fluorescent membrane probe, 1,2’-dNA, in the presence of the EPI carbonyl cyanide m-chlorophenylhydrazone (CCCP) which inactivated the pump by dissipating membrane potential. Next, compounds tested were added at the concentration of 100 µM and the efflux was energizing by automated injection of glucose at a dose of 50 µM. The fluorescence intensity was measured in a microplate reader (Tecan) with an excitation wavelength of λex = 370 nm and an emission wavelength of λem = 420 nm.

[5] = tested on: K. aerogenes CM-64 (overexpression of AcrAB-TolC); assay: MIC of compounds, K. aerogenes CM-64; format: cell-based; conditions: Klebsiella aerogenes, read-out: Minimal Inhibitory Concentration (MIC)
Text: as §3, §1, §2

[6] = tested on: K. aerogenes Ea-294, Ea-308; assay: MIC reduction assay (antibiotic adjuvant), K. aerogenes Ea-294, Ea-308; format: cell-based, Klebsiella aerogenes; conditions: doxycycline, chloramphenicol, norfloxacin, erythromycin;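 further: compound at no more than one quarter of its own MIC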
Text: as §3, §4, §2

K. aerogenes CM-64 = assay: MIC reduction assay (antibiotic adjuvant), K. aerogenes CM-64; format: cell-based, Klebsiella aerogenes; conditions: doxycycline, chloramphenicol, norfloxacin, erythromycin;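 further: compound at no more than one quarter of its own MIC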
Text: as §3, §4, §2

[7] = tested on: K. aerogenes Ea-294, Ea-308 (devoid of AcrAB); assay: MIC of compounds, K. aerogenes Ea-294, Ea-308; format: cell-based; conditions: Klebsiella aerogenes, read-out: Minimal Inhibitory Concentration (MIC)
Text: as §3, §1, §2

[8] = read-out: MIC value/no precipitation
[9] = read-out: Minimal Inhibitory Concentration (MIC)
[10] = doxycycline, chloramphenicol, norfloxacin, erythromycin

SMILES	MIC [1, 8]	Number of TLC spots ([2]; acidic conditions, 10 min)	Number of TLC spots ([2]; acidic conditions, 1 h)	Number of TLC spots ([2]; acidic conditions, 2 h)	Number of TLC spots ([2]; acidic conditions, 3 h)	Number of TLC spots ([2]; acidic conditions, 24 h)	Number of TLC spots ([2]; acidic conditions, 48 h)	Number of TLC spots ([2]; basic conditions, 10 min)	Number of TLC spots ([2]; basic conditions, 1 h)	Number of TLC spots ([2]; basic conditions, 2 h)	Number of TLC spots ([2]; basic conditions, 3 h)	Number of TLC spots ([2]; basic conditions, 24 h)	Number of TLC spots ([2]; basic conditions, 48 h)	A (activity gain) (K. aerogenes Ea-289; doxycycline)	A (activity gain) (K. aerogenes Ea-289; erythromycin)	solubility [3]	MIC (MRSA 19449)	MIC (S. aureus ATCC 25923)	also measured
O=C1NC(N2CCC(N3CCOCC3)CC2)=N/C1=C\c1ccc(Oc2ccccc2)cc1 [Compound 10]	> 250 µM	1	1	1	1	1	2	1	1	1	1	1	2	1	1	2680 µg/mL and 5740 µM	31.2 to 250 µM		time stable ([2]; basic conditions): 24 h
O=C1NC(N2CCC(N3CCOCC3)CC2)=N/C1=C\c1ccc(-c2ccccc2)cc1 [Compound 8]	> 250 µM													1	1		31.2 to 250 µM		
NC1=N/C(=C\c2cc3ccccc3c3ccccc23)C(=O)N1CCCN1CCOCC1 [Compound 21]	> 250 µM													1	1		31.2 to 250 µM	31.2 to 250 µM	
Cl.O=C1N=C(N2CCC(N3CCOCC3)CC2)N/C1=C\c1cccc2ccccc12 (hydrate or solvate) [Compound 11, (Z)-5-(Naphthalen-1-ylmethylene)-2-(4-Morpholinopiperidin-1-yl)-Imidazol-4(5H)-one Hydrochloride]																			melting point: 244 to 249 °C
O=C1NC(N2CCOCC2)=N/C1=C\c1ccc(-c2ccccc2)cc1 [Compound 7]	> 250 µM													1	1		31.2 to 250 µM	31.2 to 250 µM	MIC [1, 9]: > 2000 µM; Inhibition efficiency (IE) towards extrusion of 1,2'-dNA [4]: 59%; MIC [5]: > 2000 µM; A (activity gain) [6]: 1; A (activity gain) (K. aerogenes CM-64): 1; A (activity gain) (K. aerogenes Ea-289; [10]): 1; MIC [7]: 2000 µM
Cl.O=C1N=C(N2CCC(N3CCOCC3)CC2)N/C1=C\c1cccc2ccccc12 [Compound 11, (Z)-5-(Naphthalen-1-ylmethylene)-2-(4-Morpholinopiperidin-1-yl)-Imidazol-4(5H)-one Hydrochloride]	> 250 µM	1	1	1	1	1	2	1	2	2	2	2	2	1	1	20200 µg/mL and 47300 µM	31.2 to 250 µM	31.2 to 250 µM	
O=C1NC(N2CCC(N3CCOCC3)CC2)=N/C1=C\c1cccc(Oc2ccccc2)c1 [Compound 9]	> 250 µM	2	2	2	2	2	2	2	2	2	2	2	2	1	1	1480 µg/mL and 3170 µM	31.2 to 250 µM	31.2 to 250 µM	
Cc1onc(-c2ccccc2)c1C(=O)N[C@@H]1C(=O)N2[C@@H]1SC(C)(C)[C@@H]2C(=O)O [oxacillin, reference compound]																			MIC of the antibiotic alone (S. aureus ATCC 25923; oxacillin alone): 0.25 µg/mL; MIC of the antibiotic alone (MRSA 19449; oxacillin alone): 256 µg/mL
O=C1NC(N2CCC(N3CCOCC3)CC2)=N/C1=C\c1c2ccccc2cc2ccccc12 [Compound 13]	> 250 µM													1	1		31.2 to 250 µM	31.2 to 250 µM	MIC [1, 9]: > 2000 µM; Inhibition efficiency (IE) towards extrusion of 1,2'-dNA [4]: 23%; MIC [5]: > 2000 µM; A (activity gain) [6]: 1; A (activity gain) (K. aerogenes CM-64): 1; A (activity gain) (K. aerogenes Ea-289; [10]): 1; MIC [7]: 2000 µM
NC1=N/C(=C\c2ccc(Oc3ccccc3)cc2)C(=O)N1CCCN1CCOCC1 [Compound 17]	> 250 µM													1	1		31.2 to 250 µM		
